Consider six compounds from patent publication US20260217708A1, “FUSED BENZAZEPINE DERIVATIVES FOR USE IN THE TREATMENT OF CANCER AND EPILEPSY” (UCB BIOPHARMA SRL, priority 2023, published 2026).

Assay [1] concerns the target T1, system Xc^− (Homo sapiens, UniProt Q9UPY5).
T1 sequence (Q9UPY5 1-501): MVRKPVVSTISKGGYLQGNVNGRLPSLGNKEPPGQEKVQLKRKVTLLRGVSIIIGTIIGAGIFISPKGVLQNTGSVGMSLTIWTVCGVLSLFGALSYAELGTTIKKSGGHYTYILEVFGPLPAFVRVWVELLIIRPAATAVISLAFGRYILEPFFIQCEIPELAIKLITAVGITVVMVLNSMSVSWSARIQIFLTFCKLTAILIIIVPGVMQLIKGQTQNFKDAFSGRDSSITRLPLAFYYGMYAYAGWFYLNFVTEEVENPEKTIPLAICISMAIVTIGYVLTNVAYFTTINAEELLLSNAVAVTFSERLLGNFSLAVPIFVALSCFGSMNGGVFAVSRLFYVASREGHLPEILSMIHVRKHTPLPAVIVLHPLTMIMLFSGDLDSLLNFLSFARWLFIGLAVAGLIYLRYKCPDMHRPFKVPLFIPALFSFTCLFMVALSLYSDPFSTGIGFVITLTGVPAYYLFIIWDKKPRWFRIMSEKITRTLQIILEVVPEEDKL
T1 sequence (P08195 1-529 partner): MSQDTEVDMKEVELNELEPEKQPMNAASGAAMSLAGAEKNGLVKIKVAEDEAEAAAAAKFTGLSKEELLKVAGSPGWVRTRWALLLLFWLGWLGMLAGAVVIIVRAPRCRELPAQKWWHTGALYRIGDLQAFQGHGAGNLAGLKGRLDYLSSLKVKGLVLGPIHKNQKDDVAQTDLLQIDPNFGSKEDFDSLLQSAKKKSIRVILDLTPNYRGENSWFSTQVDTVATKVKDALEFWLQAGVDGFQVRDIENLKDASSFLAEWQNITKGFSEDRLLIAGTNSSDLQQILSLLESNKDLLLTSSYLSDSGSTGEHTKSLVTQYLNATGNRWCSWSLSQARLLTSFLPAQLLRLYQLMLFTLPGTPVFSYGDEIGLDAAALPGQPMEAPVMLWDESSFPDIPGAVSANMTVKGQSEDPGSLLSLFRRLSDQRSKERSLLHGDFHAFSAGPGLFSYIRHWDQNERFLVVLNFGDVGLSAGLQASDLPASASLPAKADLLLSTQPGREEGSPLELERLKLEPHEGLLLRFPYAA
The following applies: background statement, no data given; cited from earlier work.

Assay [2] has as its target T1, system Xc^−. The assay can be described thus: Cystine-induced glutamate release assay. On the set-up: endogenous in cells; host or cells: H4 cells. Type of assay: cell-based. The following applies: H4 cells, sodium-free HEPES buffer, 50 μM L-Cystine, 2 hours, Amplex Red glutamate readout; read-out: pIC50 Cystine-induced glutamate release assay (converted). The gist of the method: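 H4 cells in sodium-free HEPES buffer (pH 7.4), 2 days after plating; glutamate release induced with 50 μM L-cystine plus compound (1% DMSO), 2 h at 37 °C. Supernatant glutamate measured by Amplex Red fluorescence; IC50/pIC50 derived between 1% DMSO and 50 μM erastin controls.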

Assay [3] addresses T1, system Xc^−. Nature of the assay: [^14C]L-Cystine uptake assay. The assay is classed as cell-based. On the set-up: endogenous in cells; host or cells: H4 cells. The following applies: H4 cells, sodium-free HEPES buffer, 0.5 μM L-[14C]Cystine and 4.5 μM L-Cystine, 1 hour at 37° C.; read-out: pIC50 [^14C] L-Cystine uptake assay (converted). In short, it runs like this: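 H4 cells at 5×10^4 cells/well in sodium-free HEPES buffer were preincubated 15 min with compounds (1% DMSO). Uptake of 0.5 μM [14C]L-cystine plus 4.5 μM unlabelled L-cystine ran 1 hour at 37° C on scintillating plates. IC50 was set between 1% DMSO and 50 μM Erastin controls and expressed as pIC50.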

For the compound `O=C(O)c1cc(/N=N/c2ccc(S(=O)(=O)Nc3ccccn3)cc2)ccc1O` [Sulfasalazine], in assay [1], the “inhibition of the System Xc− antiporter” value was “non-selective inhibitor” and the “potency on human System Xc− function” value was “low”.
As for `O=C(CN1C(=O)Cc2sccc2-c2cnc(Cl)cc21)Nc1ccc(C(F)(F)F)cc1` [#26, 2-(12-chloro-8-oxo-5-thia-9,13-diazatricyclo[8.4.0.0^2,6]tetradeca-1(10),2(6),3,11,13-pentaen-9-yl)-N-[4-(trifluoromethyl)phenyl]acetamide], the IC50 was 100 to 501 nM in assay [2] and 39.8 to 100 nM in assay [3].
On to `Cc1cc2c(cn1)-c1ccc(F)cc1C(C)C(=O)N2CC(=O)Nc1ccc(C(F)F)cc1` (single isomer, unassigned) [#323, N-[4-(difluoromethyl)phenyl]-2-[9-fluoro-3,7-dimethyl-6-oxo-7H-pyrido[3,4-a][3]benzazepin-5-yl]acetamide], for which the IC50 in assay [2] and in assay [3] was less than 15.8 nM throughout.
In the case of `CC1C(=O)N(CC(=O)Nc2ccc(C(F)(F)F)nc2)c2cc(N3CC(F)(F)C3)ccc2-c2cccnc21` (single isomer, unassigned) [#333, 2-[9-(3,3-difluoroazetidin-1-yl)-5-methyl-6-oxo-5H-pyrido[2,3-d][1]benzazepin-7-yl]-N-[6-(trifluoromethyl)-3-pyridyl]acetamide], the IC50 in assay [2] is 39.8 to 100 nM; in assay [3] it was 15.8 to 39.8 nM.
With `CC1C(=O)N(CC(=O)Nc2ccc(Cl)c(F)c2)c2cc(C3CN(CC(F)F)C3)cc(F)c2-c2cccnc21` (stereo not drawn) [#345, N-(4-chloro-3-fluoro-phenyl)-2-[9-[1-(2,2-difluoroethyl)azetidin-3-yl]-11-fluoro-5-methyl-6-oxo-5H-pyrido[2,3-d][1]benzazepin-7-yl]acetamide], the IC50 in assay [2] and in assay [3] was 15.8 to 39.8 nM in each case.
In the case of `COc1cnc2c(c1)-c1cnc(C)cc1N(CC(=O)Nc1ccc(Cl)c(F)c1)C(=O)C2C` (single isomer, unassigned) [#415, N-(4-chloro-3-fluoro-phenyl)-2-[14-methoxy-5,10-dimethyl-9-oxo-4,8,12-triazatricyclo[9.4.0.0^2,7]pentadeca-1(15),2,4,6,11,13-hexaen-8-yl]acetamide], the IC50 in assay [2] and in assay [3] was less than 15.8 nM throughout.
